Source: patent US11931364B2, “Modulation of the nitric oxide synthase pathway for oral health” (Meharry Medical College, priority 2016, dated 2024)

Test system: nitric oxide release in rat tissue
Experiment: Nitric oxide release in rat tissue exposed to hyperglycemia in vitro, with sepiapterin supplementation
Settings: hyperglycemia 55 mM, 48 hr incubation, sepiapterin 100 μM, n=4 per group, FIG. 5
Description: FIG. 5. Effect of hyperglycemia (55 mM, 48 hr incubation) and supplementation of sepiapterin (SEP, 100 μM), on nitric oxide release in rat tissue. The bars represent mean f SEM. *p<0.05 non-glycemic (N.G, Control) vs. hyperglycemic (H.G); #p<0.05 N.G vs. SEP, t-test (n=4 in each group). […] Protein expression for DHFR was reduced in diabetic female rats (FIGS. 3A-3B). […] All the above findings correlated well with the impaired saliva secretion and water intake (FIGS. 1A-1B) and e/n NOS activity (FIGS. 3A-3B) as measured by dimerization in SM gland tissue. Therefore, dietary supplementation of sepiapterin improves e/n NOSα dimerization, nNOS activity, NO synthesis and saliva secretion.

C[C@H](O)C(=O)C1=Nc2c(nc(N)[nH]c2=O)NC1 [sepiapterin]
NO release in the tissue exposed to hyperglycemia: improved NO release
